Test results taken from patent publication US10731134B2, “Production method for artificial cancer stem cell and induced differentiation method therefor” (Public University Corporation Yokohama City University, priority 2011, dated 2020).
“Also recorded” adds a separate entry of the source.

Assays:
[1] = system: (CD44low/CD24high) cancer cells; conditions: mixed population of cancer stem cells and cancer cells; Gupta et al. 2009; cited from earlier work
[2] = system: CSC-10A-D9 induced by differentiation from CSC-10A (induced cancer stem cells); test: Induced differentiation of CSC-10A by addition of salinomycin (phase-contrast morphology, alkaline phosphatase staining, Western blot); format: cell-based, human
Method: Also, these cells were stained with an undifferentiation marker alkaline phosphatase (ALP). […] Next, these cells were lysed and subjected to Western blot.
Induced Differentiation Method for CSC-10A (Addition of Salinomycin)
CSC-10A was seeded over 10-cm dishes. After 24 hours, salinomycin was added to give a final concentration of […] and the culture was continued at 37° C. Four days after the addition of salinomycin, the cells were stained with alkaline phosphatase. The cells were recovered four days after the addition of salinomycin and subjected to Western blot which confirmed the expression of vimentin, β-catenin, and tubulin (control).

[3] = system: (CD44high/CD24low) cancer stem cells; conditions: mixed population of cancer stem cells and cancer cells; Gupta et al. 2009; cited from earlier work
[4] = Western blot, 10 μM salinomycin, 4 days after addition

CC[C@@H](C(=O)[C@@H](C)[C@@H](O)[C@H](C)[C@@H]1O[C@@H]([C@@H](CC)C(=O)O)CC[C@@H]1C)[C@H]1O[C@]2(C=C[C@@H](O)[C@]3(CC[C@@](C)([C@H]4CC[C@](O)(CC)[C@H](C)O4)O3)O2)[C@H](C)C[C@@H]1C [salinomycin]
Effect on (CD44low/CD24high) cancer cells [1]: leaving cancer cells intact
Staining with undifferentiation marker alkaline phosphatase (ALP-positive cells) ([2]; 10 μM salinomycin vs DMSO, 4 days after addition): significant decrease in ALP-positive cells; also recorded: decreased
Size of each individual cell ([2]; 10 μM salinomycin vs DMSO, 4 days later): increased
Cell differentiation / morphology under a phase-contrast microscope ([2]; 10 μM salinomycin vs DMSO, observed 4 days later): differentiated into epithelial-like cells
Expression of differentiation (epithelial) marker beta-catenin [2, 4]: increase
Expression of stem cell (mesenchymal) marker vimentin [2, 4]: decrease
Effect on (CD44high/CD24low) cancer stem cells [3]: kills only cancer stem cells

CC(=O)O[C@H]1C(=O)[C@@]2(C)[C@H]([C@H](OC(=O)c3ccccc3)[C@]3(O)C[C@H](OC(=O)[C@H](O)[C@@H](NC(=O)c4ccccc4)c4ccccc4)C(C)=C1C3(C)C)[C@]1(OC(C)=O)CO[C@@H]1C[C@@H]2O [Taxol]
Effect on (CD44low/CD24high) cancer cells [1]: only inhibits the growth of cancer cells
Effect on (CD44high/CD24low) cancer stem cells [3]: left intact
